Test results taken from patent publication US11066414B2, “Cot modulators and methods of use thereof” (Gilead Sciences, Inc., priority 2015, dated 2021).
Read-outs that look alike come from different tables or passages of the source.

Experiments:
TNFα = experiment: Cot Monocyte TNFα Cell Based Assay
Human Cot = Human Cot (Homo sapiens (Human), UniProt P41279); experiment: High Throughput Cot Biochemical Assay
[1] = Homo sapiens, Monocyte, read-out: EC50 TNF, LPS-stimulated human monocytes, TNFα TR-FRET
[2] = IC50 HTRF, Cot HTRF (TR-FRET KinEASE) biochemical assay, 400 μM ATP
[3] = Homo sapiens, Monocyte, read-out: EC50 TNF, LPS-stimulated human monocytes, TNFα
[4] = IC50 HTRF, Cot HTRF (TR-FRET) biochemical assay
[5] = read-out: EC50 TNF, LPS-stimulated human monocytes, TNFα TR-FRET
[6] = read-out: IC50 HTRF, Cot HTRF (TR-FRET KinEASE) biochemical assay, 400 μM ATP

Human Cot, sequence (P41279 30-397): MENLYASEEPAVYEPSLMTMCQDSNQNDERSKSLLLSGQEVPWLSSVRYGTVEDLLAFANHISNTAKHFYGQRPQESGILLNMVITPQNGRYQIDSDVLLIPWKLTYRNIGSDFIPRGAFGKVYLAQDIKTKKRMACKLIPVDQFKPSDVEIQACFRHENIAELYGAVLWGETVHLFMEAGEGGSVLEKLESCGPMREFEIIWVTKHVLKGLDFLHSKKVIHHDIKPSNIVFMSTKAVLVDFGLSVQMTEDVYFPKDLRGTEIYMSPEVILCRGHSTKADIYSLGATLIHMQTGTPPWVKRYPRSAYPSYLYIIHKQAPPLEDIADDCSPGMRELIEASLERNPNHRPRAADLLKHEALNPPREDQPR

Compound | EC50 (TNFα; [3]) [nM] | IC50 (Human Cot; [4]) [nM] | also measured
Cc1nc(F)ccc1[C@H](Nc1cc(Cl)c2ncc(C#N)c(NCC(C)(C)C(F)(F)F)c2c1)c1nnn(C23CC(C2)C3)c1F [Example 956, (S)-6-(((1-(bicyclo[1.1.1]pentan-1-yl)-5-fluoro-1H-1,2,3-triazol-4-yl)(6-fluoro-2-methylpyridin-3-yl)methyl)amino)-8-chloro-4-((3,3,3-trifluoro-2,2-dimethylpropyl)amino)quinoline-3-carbonitrile] |  |  | EC50 (TNFα; [1]): 44 nM; IC50 (Human Cot; [2]): 7 nM
Cc1nc(F)ccc1[C@H](Nc1cc(C#N)c2ncc(C#N)c(NCC(C)(C)C)c2c1)c1nnn(C2CC2)c1Cl [Example 680, (S)-6-(((5-chloro-1-cyclopropyl-1H-1,2,3-triazol-4-yl)(6-fluoro-2-methylpyridin-3-yl)methyl)amino)-4-(neopentylamino)quinoline-3,8-dicarbonitrile] | 98 | 3 | 
Cc1nc(F)ccc1[C@H](Nc1cc(C#N)c2ncc(C#N)c(NCC(C)(C)C)c2c1)c1cn(CC(C)(F)F)nn1 [Example 836, (S)-6-(((1-(2,2-difluoropropyl)-1H-1,2,3-triazol-4-yl)(6-fluoro-2-methylpyridin-3-yl)methyl)amino)-4-(neopentylamino)quinoline-3,8-dicarbonitrile] |  |  | EC50 (TNFα; [1]): 52 nM; IC50 (Human Cot; [2]): 4 nM
Cc1nc(F)ccc1[C@H](Nc1cc(Cl)c2ncc(C#N)c(NCC(C)(C)C)c2c1)c1cn(C2(C(=O)O)CC2)nn1 [Example 517, (S)-1-(4-(((8-chloro-3-cyano-4-(neopentylamino)quinolin-6-yl)amino)(6-fluoro-2-methylpyridin-3-yl)methyl)-1H-1,2,3-triazol-1-yl)cyclopropane-1-carboxylic acid] | 1000 | 3 | 
Cc1nc(F)ccc1[C@H](Nc1cc(Cl)c2ncc(C#N)c(NCC(C)(C)C)c2c1)c1nnn(C2(C(F)F)CC2)c1I [Example 945, (S)-8-chloro-6-(((1-(1-(difluoromethyl)cyclopropyl)-5-iodo-1H-1,2,3-triazol-4-yl)(6-fluoro-2-methylpyridin-3-yl)methyl)amino)-4-(neopentylamino)quinoline-3-carbonitrile] |  |  | EC50 (TNFα; [1]): 142 nM; IC50 (Human Cot; [2]): 17 nM
Cn1ccc2c([C@H](Nc3cc(C#N)c4ncc(C#N)c(NCC(C)(C)C)c4c3)c3cn(C4(C5CC5)CC4)nn3)cccc2c1=O [Example 881, (S)-6-(((4-(1-(1-bi(cyclopropan)]-1-yl)-1H-1,2,3-triazol-4-yl)(2-methyl-1-oxo-1,2-dihydroisoquinolin-5-yl)methyl)amino)-4-(neopentylamino)quinoline-3,8-dicarbonitrile] |  |  | EC50 (TNFα; [5]): 13 nM; IC50 (Human Cot; [6]): 2 nM
COc1nccc2c([C@H](Nc3cc(Cl)c4ncc(C#N)c(NCC(C)(C)C)c4c3)c3cn(C45CC(C4)C5)nn3)cccc12 [Example 911, (S)-6-(((1-(bicyclo[1.1.1]pentan-1-yl)-1H-1,2,3-triazol-4-yl)(1-methoxylsoquinolin-5-yl)methyl)amino)-8-chloro-4-(neopentylamino)quinoline-3-carbonitrile] |  |  | EC50 (TNFα; [5]): 85 nM; IC50 (Human Cot; [6]): 7 nM
Cc1nc([C@H](Nc2cc(Cl)c3ncc(C#N)c(NCC(C)(C)C)c3c2)c2cn(C3(C(F)F)CC3)nn2)c(C)o1 [Example 639, (S)-8-chloro-6-(((1-(1-(difluoromethyl)cyclopropyl)-1H-1,2,3-triazol-4-yl)(2,5-dimethyloxazol-4-yl)methyl)amino)-4-(neopentylamino)quinoline-3-carbonitrile] | 806 | 58 | 
COc1ccc([C@H](Nc2cc(Cl)c3ncc(C#N)c(NCC(C)(C)C)c3c2)c2cn(C3(C(F)F)CC3)nn2)c(C)n1 [Example 729, (S)-8-chloro-6-(((1-(1-(difluoromethyl)cyclopropyl)-1H-1,2,3-triazol-4-yl)(6-methoxy-2-methylpyridin-3-yl)methyl)amino)-4-(neopentylamino)quinoline-3-carbonitrile] | 108 | 5 | 
CC(C)(C)CNc1c(C#N)cnc2c(Cl)cc(N[C@H](c3cn(C4(C(F)(F)F)CC4)nn3)c3cccc4c(=O)[nH]ccc34)cc12 [Example 676, (S)-8-chloro-4-(neopentylamino)-6-(((1-oxo-1,2-dihydroisoquinolin-5-yl)(1-(1-(trifluoromethyl)cyclopropyl)-1H-1,2,3-triazol-4-yl)methyl)amino)quinoline-3-carbonitrile] | 112 | 6 | 

The next lines start with results.

EC50 (TNFα; [3]) [nM] | IC50 (Human Cot; [4]) [nM] | Compound | also measured
3760 | 44 | N#Cc1cnc2c(Cl)cc(N[C@H](c3c[nH]nn3)c3cnccc3Cl)cc2c1Nc1cnc(F)c(F)c1 [Example 153, (S)-8-chloro-6-(((4-chloropyridin-3-yl)(1H-1,2,3-triazol-4-yl)methyl)amino)-4-((5,6-difluoropyridin-3-yl)amino)quinoline-3-carbonitrile] | 
1000 | 181 | CC(C)(C)CNc1c(C#N)cnc2c(Cl)cc(N[C@@H](c3cnc4ccccc4c3)c3cn(C4(C(F)(F)F)CC4)nn3)cc12 [Example 629, (S)-8-chloro-4-(neopentylamino)-6-((quinolin-3-yl(1-(1-(trifluoromethyl)cyclopropyl)-1H-1,2,3-triazol-4-yl)methyl)amino)quinoline-3-carbonitrile] | 
9740 | 305 | CC(C)n1cc([C@@H](Nc2cc(Cl)c3ncc(C#N)c(N[C@H](CCO)c4ccccc4)c3c2)c2cccnc2)nn1 [Example 185, 8-chloro-4-(((R)-3-hydroxy-1-phenylpropyl)amino)-6-(((S)-(1-isopropyl-1H-1,2,3-triazol-4-yl)(pyridin-3-yl)methyl)amino)quinoline-3-carbonitrile] | 
1500 | 39 | CC(C)n1cc([C@@H](Nc2cc(Cl)c3ncc(C#N)c(Nc4ccc(F)c(Cl)c4)c3c2)c2cnco2)nn1 [Example 298, (R)-8-chloro-4-((3-chloro-4-fluoro-phenyl)amino)-6-(((1-isopropyl-1H-1,2,3-triazol-4-yl)(oxazol-5-yl)methyl)-amino)quinoline-3-carbonitrile] | 
10800 | 58 | N#Cc1cnc2c(Cl)cc(N[C@@H](c3ccc4c(c3)CNC4)c3c[nH]nn3)cc2c1Nc1ccc(F)c(Cl)c1 [Example 55, (S)-8-chloro-4-((3-chloro-4-fluorophenyl)amino)-6-((isoindolin-5-yl(1H-1,2,3-triazol-4-yl)methyl)amino)quinoline-3-carbonitrile] | 
> 1000 |  | N#Cc1cnc2c(Cl)cc(NC(c3cccnc3)c3ccccn3)cc2c1Nc1ccc(F)c(Cl)c1 (stereo not shown) [Example 376, 8-chloro-4-((3-chloro-4-fluorophenyl)amino)-6-((pyridin-2-yl(pyridin-3-yl)methyl)amino)-quinoline-3-carbonitrile] | IC50 (Human Cot; read-out: IC50 HTRF, Cot HTRF (TR-FRET) biochemical assay): 182 nM
599 | 9 | C[C@@H](CF)n1cc([C@@H](Nc2cc(Cl)c3ncc(C#N)c(Nc4cnc(F)c(F)c4)c3c2)c2cccnc2)nn1 [Example 197, 8-chloro-4-((5,6-difluoropyridin-3-yl)amino)-6-(((S)-(1-((S)-1-fluoropropan-2-yl)-1H-1,2,3-triazol-4-yl)(pyridin-3-yl)methyl)amino)quinoline-3-carbonitrile] | 
